Source: patent publication US12281329B2, “Compositions and methods for immune cell modulation in adoptive immunotherapies” (Fate Therapeutics, Inc., priority 2016, dated 2025)

Assays:
[1] = tested on: NK cells; experiment: Sorted NK cell populations (CD57/NKG2C) cultured with CHIR99021: maturation; type: cell-based, human; details: 7 day
Description: NK Cell Sorting: CD3/CD19 depleted PBMC were labelled with 10 uM e450 proliferation dye (eBioscience) and stained with FITC-conjugated anti-CD57, PE-Conjugated anti-NKG2C, APC-conjugated anti-CD56, and Percp-Cy5.5-conjugated anti-CD3 antibodies (BD Biosciences and R&D Systems). Four populations of CD3-CD56+NK cells were sorted according to the expression of CD57 and NKG2C; CD57+NKG2C−, CD57+NKG2C+, CD57-NKG2C+, and CD57-NKG2C−. Sorted NK cell populations were cultured at a 2:1 ratio of NK:monocytes in BO media with 10 ng/ml IL-15 and CHIR99021 or vehicle control. Stained but unsorted cells were cultured in parallel as a control.
CD3/CD19 depleted PBMC were labelled with e450 proliferation dye, and CD56+CD3− NK cells were sorted in bulk or were sorted into 4 populations based on expression of CD57 and NKG2C expression (FIG. 5A). Total, unfractionated, NK cells were cultured alongside CD57+NKG2C− (Q1), CD57+NKG2C+(Q2), CD57−NKG2C+(Q3), CD57−NKG2C− (Q4) sorted NK cells with either (1) cytokine (10 ng/ml IL15) and 5 μM CHIR99021, or (2) cytokine only with vehicle control (for example, DMSO only) (FIG. 5B) with autologous CD14+ monocytes in a 1:1 ratio of NK cells:monocytes. After the 7 day culture period, cultures of each sorted population were stained for flow cytometry and analyzed for proliferation and cell surface marker expression. […]

[2] = tested on: HER2+ SKOV3 cells; experiment: NK cell killing and Herceptin ADCC of SKOV3 cells; type: cell-based, human
Description: NK Cell Cytotoxicity Assay: Cytotoxicity was determined using a flow cytometry based method based on a previously published method (Kim, et al. J Immunol Methods. 2007 Aug. 31; 325(1-2): 51-66). NK cells were co-cultured with e450-proliferation dye-labelled targets for 4 hours. CellEvent™ Caspase-3/7 Green Flow Cytometry Assay Kit (Lifer Technologies) was used to assay for cell death among target cells, and samples were read on a BD LSRFortessa cytometer. Killing of SKOV-3 targets was quantified using the Incucyte Zoom instrument. SKOV-3 cells were transiently transduced with NucLight-Red BacMam reagent (Essen Biosciences) and co-cultured with the indicated NK cell populations for 74 hours, with images taken on two hour intervals. Caspase 3/7 activity was monitored to indicate target cells undergoing apoptosis using the CellEvent™ Caspase-3/7 Green Detection Reagent. The number of target cells was normalized to SKOV-3 cells cultured alone, and targets undergoing apoptosis were quantified based on caspase 3/7 activity.
In a similar fashion, SKOV3 cells were treated with NK cells derived from overnight culture with IL15, 7 day culture with IL15 and 7 day culture with IL15 and GSK3i. […]

[3] = tested on: NK cells; experiment: NK cell intracellular cytokine staining after IL-12+IL-18 or K562 stimulation; type: cell-based, human; details: 7 days 10 ng/ml IL-15 + 5 uM CHIR99021; 4-hour IL12+IL18 or K562 stimulation; vs primed or 7 day IL15 only
Description: NK Cell Intracellular Cytokine Staining: CD3/CD9 depleted PBMC were cultured for 7 days with 10 ng/ml IL-15 and 5 uM CHIR99021 or vehicle control. On culture day 7 cells were washed and cultured separately with IL-12 and IL-18 (long/ml and 50 ng/ml, respectively) (Life Technologies) or with K562 cells at a 1:1 ratio. Golgistop (BD Biosciences) was included in the culture media to facilitate intracellular detection of cytokines. After a 4 hour culture period, cells were stained for cell surface antigens and fixed prior to intracellular staining with antibodies to IFN-gamma and TNF-alpha (BD Biosciences). Staining was performed using the BD Cytofix/Cytoperm™ Kit according to the manufacturer's instructions.
Also analyzed was the effect of GSK3 inhibitor treatment to NK cell cytokine response. PBMC obtained directly from donors were cultured after CD3/CD9 depletion for 7 days with 10 ng/ml IL-15 and 5 uM CHIR99021, or with IL15 only. On day 7, cells were washed and cultured separately with IL-12 (long/ml) and IL-18 (50 ng/ml), or with K562 cells at a 1:1 ratio for stimulation. After a 4-hour culture period, cells were stained for cell surface antigens and fixed prior to intracellular staining with antibodies to IFNγ and TNFα, respectively.

[4] = tested on: NK cells; experiment: NK cell culture with modified K562 feeder cells: proliferation and subtype skewing; type: cell-based, human; details: 7 days
Description: CD3/19 depleted PBMCs were cultured for 7 days with modified K562 feeder cells in the presence of DMSO (Vehicle), 0.1 uM GSK3i CHIR99021 alone (C), or a combination of 0.1 uM GSK3i CHIR99021, 40 nM MEKi PD0325901, and 1 nM Rapamycin (CPR).

[5] = tested on: NK cells; experiment: Maintenance of modulated NK cell phenotype after transfer into NSG mice; type: in vivo
Description: The mice received only IL-15 with no GSK3i. It was shown that NK cells cultured in vitro with GSK3i for 7 days maintain their phenotypic changes in vivo for at least one week after being transferred and without the presence of the small molecule. CD57 remains high representing the maturity of the NK cells which was not the case when the cells were cultured without GSK3i (FIGS. 9A and 9B).

Cc1c[nH]c(-c2cnc(NCCNc3ccc(C#N)cn3)nc2-c2ccc(Cl)cc2Cl)n1 [CHIR99021]
expression of CD57 in Q3 and Q4 sorted cells (CD57− before culturing) ([1]; 10 ng/ml IL15 + 5 μM CHIR99021): upregulated
CD57 expression in the total NK cells ([1]; 10 ng/ml IL15 + 5 μM CHIR99021, unsorted): significant increase
killing of SKOV3 cells (killing rate and killing efficiency; elimination, caspase 3/7 peak) ([2]; 7 day IL15 + GSK3i vs overnight IL15 and 7 day IL15): most effective
ADCC killing of SKOV3 with HER2 antibody (Herceptin) ([2]; NK cells 7 days IL15 + GSK3i vs overnight IL15 and 7 day IL15): enhanced
IFNγ production in NK cells [3]: enhanced
TNFα production in NK cells [3]: enhanced
proliferation of the activated NK cells overall ([4]; K562 feeder modified to express IL21 and 41BBL, vs vehicle): increased
number of CD57+NK cells ([4]; modified K562 feeder cells, vs vehicle control): highest
CD57 on NK cells from peripheral blood ([5]; 7 days after transfer of 7 day IL15+GSK3i cultured NK cells, mice received only IL-15): remains high
CD16 and NKG2C+/CD57+ on transferred NK cells ([5]; 7 days after transfer, without small molecule): maintained in vivo
